# Test results as given in patent US20040249122A1, “Cationic, amphipathic beta-sheet peptides and uses thereof” (priority 2003, published 2004).
# “Also recorded” adds a separate entry of the source. Where two headings read alike, the source gives them in different places. Where a SMILES comes first, the peptide text is derived from it.
# Experiments:
# [1] = tested on: human erythrocytes; experiment: Hemolysis of human erythrocytes; format: cell-based
# Method: Antimicrobial and Hemolytic Assays. Antimicrobial susceptibility testing against Staphylococcus aureus (ATCC 29213), Escherichia coli (ATCC 25922), and Pseudomonas aeruginosa (ATCC 27853) was performed using a modification of the National Committee for Clinical Laboratory Standards microdilution broth assay (22). Mueller-Hinton broth (BBL) was used for diluting the peptide stock solution and for diluting the bacterial inoculum. The inoculum was prepared from mid-logarithmic phase cultures. […] The final concentration of peptide solution ranged-from 0.25 to 256 μg/mL in two-fold dilutions. The final concentration of bacteria in the wells was 5×10^5 CFU/mL. Peptides were tested in duplicate. In addition to the test peptide, three standard peptides and a non-treated growth control were included to validate the assay. The microtiter plates were incubated overnight at 37° C. and the absorbance was measured at 600 nm. […] After incubation at 37° C. for 30 min, the suspension was centrifuged at 10,000×g for 10 min and the absorbance at 400 nm was measured.
# [2] = Peptide-induced leakage from calcein-loaded LUV
# Method: Peptide-Induced Leakage from Calcein-Loaded LUV. The ability of the peptides to release calcein (MW 623) from LUV of varying lipid composition was compared. LUV were prepared as above, except that-the buffer consisted of 50 mM HEPES, 100 mM NaCl, 0.3 mM EDTA, 80 mM calcein, pH 7.4. Calcein-loaded vesicles were separated from free calcein by size-exclusion chromatography using a Sephadex G-50 column and calcein-free buffer. Calcein leakage was monitored using a Perkin-Elmer LS-500 luminescence spectrometer by measuring the time-dependent increase in fluorescence of calcein (excitation=490 nm, emission=520 nm). LUV containing 8 nmoles of lipid were added to 1.5 mL of buffer in a stirred cuvet at 25° C. An aliquot of peptide was added to achieve the desired lipid-to-peptide ratio (256 to 8). Complete leakage was determined by the addition of 20 μL of 10% Triton X-100. Each value represents at least nine different measurements using at least three different LUV preparations.
# [3] = tested on: Escherichia coli (ATCC 25922); format: cell-based
# [4] = tested on: Pseudomonas aeruginosa (ATCC 27853); format: cell-based
# [5] = tested on: Staphylococcus aureus (ATCC 29213); format: cell-based
# [6] = tested on: Candida albicans (ATCC 14053)
# Method: Antimicrobial and Hemolytic Assays. Antimicrobial susceptibility testing against Staphylococcus aureus (ATCC 29213), Escherichia coli (ATCC 25922), and Pseudomonas aeruginosa (ATCC 27853) was performed using a modification of the National Committee for Clinical Laboratory Standards microdilution broth assay (22). Mueller-Hinton broth (BBL) was used for diluting the peptide stock solution and for diluting the bacterial inoculum. The inoculum was prepared from mid-logarithmic phase cultures. Microtiter plate wells received aliquots-of 100 μL each of the inoculum and peptide dilution. The final concentration of peptide solution ranged-from 0.25 to 256 μg/mL in two-fold dilutions. The final concentration of bacteria in the wells was 5×10^5 CFU/mL. Peptides were tested in duplicate. In addition to the test peptide, three standard peptides and a non-treated growth control were included to validate the assay. The microtiter plates were incubated overnight at 37° C. and the absorbance was measured at 600 nm. […] After incubation at 37° C. for 30 min, the suspension was centrifuged at 10,000×g for 10 min and the absorbance at 400 nm was measured. Complete hemolysis was determined by adding 0.2% Triton X-100 in place of the peptide.
# Antimicrobial susceptibility testing against Escherichia coli (ATCC 25922), Staphylococcus aureus (ATCC 29213), Pseudomonas aeruginosa (ATCC 27853), and Candida albicans (ATCC 14053) is performed using a modification of the National Committee for Clinical Laboratory Standards microdilution broth assay. Mueller-Hinton broth (BBL) is used for diluting the peptide stock solution and for diluting the bacterial inoculum. The inoculum is prepared from midlogarithmic phase cultures at an approximate concentration of 10^6 CFU/mL. Microtiter plate wells receive aliquots of 0.1 mL each of the inoculum and peptide dilution. The final concentration of the peptide solution ranges from 0.25 to 256 μg/mL in 2-fold dilutions. The microtiter plates are incubated overnight at 37° C.
Structure (SMILES),"% Hemolysis (500 μg/mL) ([1]; red cells of human, 500) [%]",calcein leakage from LUV (in words) ([2]; 4:1 POPE/POPG LUV),calcein leakage from LUV (in words) ([2]; POPC (PC) LUV),MIC E. coli ([3]; ATCC 25922) [µg/mL],"Minimum Inhibitory Concentration, E. coli ([3]; ATCC 25922) [µg/mL]",MIC Pseud. aerug ([4]; ATCC 27853) [µg/mL],"Minimum Inhibitory Concentration, P. aeruginosa ([4]; ATCC 27853) [µg/mL]",MIC Staph. aureus ([5]; ATCC 29213) [µg/mL],"Minimum Inhibitory Concentration, S. aureus ([5]; ATCC 29213) [µg/mL]","Minimum Inhibitory Concentration, C. albicans ([6]; ATCC 14053) [µg/mL]","% Hemolysis (500 μg/mL) ([1]; 500 μg/mL peptide, 5% human erythrocytes, 37° C., 30 min) [%]","calcein leakage from LUV (in words) ([2]; POPC/POPG LUV, all ratios (1:1 to 4:1))","Minimum Inhibitory Concentration, E. coli ([3]; Table 2, overnight at 37° C.) [µg/mL]",MIC E. coli ([3]; Table 4) [µg/mL],"Minimum Inhibitory Concentration, P. aeruginosa ([4]; Table 2, overnight at 37° C.) [µg/mL]",MIC Pseud. aerug ([4]; Table 4) [µg/mL],"Minimum Inhibitory Concentration, S. aureus ([5]; Table 2, overnight at 37° C.) [µg/mL]",MIC Staph. aureus ([5]; Table 4) [µg/mL],"Minimum Inhibitory Concentration, C. albicans ([6]; Table 2) [µg/mL]"
"CC[C@H](C)[C@H](NC(=O)[C@H](CCCCN)NC(=O)CNC(=O)[C@H](C)NC(=O)[C@@H](NC(=O)[C@H](CCCCN)NC(=O)[C@H](C)NC(=O)[C@@H](NC(=O)[C@H](CCCCN)NC(=O)CNC(=O)[C@H](C)NC(=O)[C@@H](NC(=O)[C@H](CCCCN)NC(=O)[C@H](C)NC(=O)[C@@H](NC(=O)[C@H](CCCCN)NC(=O)CNC(=O)[C@H](C)NC(=O)[C@@H](NC(=O)[C@@H](N)CCCCN)[C@@H](C)CC)[C@@H](C)CC)[C@@H](C)CC)[C@@H](C)CC)[C@@H](C)CC)C(=O)N[C@@H](C)C(N)=O [(KIAGKIA)3-NH2, KIAGKIAKIAGKIAKIAGKIA -NH2, reference compound] (H-KIAGKIAKIAGKIAKIAGKIA-NH2; N-terminus assumed)",9,most potent,not very effective,8,8,32,32,8,8,64,,,,,,,,,
"CC[C@H](C)[C@H](NC(=O)[C@H](CCCCN)NC(=O)[C@H](C)NC(=O)CNC(=O)[C@@H](NC(=O)[C@H](CCCCN)NC(=O)[C@@H](NC(=O)[C@H](CCCCN)NC(=O)[C@H](C)NC(=O)CNC(=O)[C@@H](NC(=O)[C@H](CCCCN)NC(=O)[C@@H](NC(=O)[C@H](CCCCN)NC(=O)[C@H](C)NC(=O)CNC(=O)[C@@H](NC(=O)[C@@H](N)CCCCN)[C@@H](C)CC)[C@@H](C)CC)[C@@H](C)CC)[C@@H](C)CC)[C@@H](C)CC)C(N)=O [(KIGAKI)3-NH2, K I G A K I K I G A K I K I G A K I -NH2] (H-KIGAKIKIGAKIKIGAKI-NH2)",,most potent,not very effective; also recorded: low lytic activity,,,,,,,,3,least potent,8,8,32,32,16,8,64
"CC(C)C[C@H](NC(=O)CNC(=O)[C@H](C)NC(=O)[C@H](CC(C)C)NC(=O)[C@H](CCCCN)NC(=O)[C@H](CCCCN)NC(=O)[C@H](C)NC(=O)[C@H](CC(C)C)NC(=O)CNC(=O)[C@H](C)NC(=O)[C@H](CC(C)C)NC(=O)[C@H](CCCCN)NC(=O)[C@H](CCCCN)NC(=O)[C@H](C)NC(=O)[C@H](CC(C)C)NC(=O)CNC(=O)[C@H](C)NC(=O)[C@H](CC(C)C)NC(=O)[C@@H](N)CCCCN)C(=O)N[C@@H](C)C(=O)N[C@@H](CCCCN)C(N)=O [(KLAGLAK)3-NH2, KLAGLAKKLAGLAKKLAGLAK -NH2] (H-KLAGLAKKLAGLAKKLAGLAK-NH2)",9,,,,8,,128,,16,64,,,,,,,,,
"CC[C@H](C)[C@H](NC(=O)CN)C(=O)NCC(=O)N[C@@H](CCCCN)C(=O)N[C@@H](Cc1ccccc1)C(=O)N[C@@H](CC(C)C)C(=O)N[C@@H](Cc1c[nH]cn1)C(=O)N[C@@H](CO)C(=O)N[C@@H](C)C(=O)N[C@@H](CCCCN)C(=O)N[C@@H](CCCCN)C(=O)N[C@@H](Cc1ccccc1)C(=O)NCC(=O)N[C@@H](CCCCN)C(=O)N[C@@H](C)C(=O)N[C@@H](Cc1ccccc1)C(=O)N[C@H](C(=O)NCC(=O)N[C@@H](C)C(=O)N[C@H](C(=O)N[C@@H](CCSC)C(=O)N[C@@H](CC(N)=O)C(=O)N[C@@H](CO)C(N)=O)[C@@H](C)CC)C(C)C [A19-Magainin 2-NH2, reference compound] (H-GIGKFLHSAKKFGKAFVGAIMNS-NH2)",29,,,,8,,16,,64,128,,,,,,,,,
"CC[C@H](C)[C@H](NC(=O)CN)C(=O)NCC(=O)N[C@@H](CCCCN)C(=O)N[C@@H](Cc1ccccc1)C(=O)N[C@@H](CC(C)C)C(=O)N[C@@H](CCCCN)C(=O)N[C@@H](CCCCN)C(=O)N[C@@H](C)C(=O)N[C@@H](CCCCN)C(=O)N[C@@H](CCCCN)C(=O)N[C@@H](Cc1ccccc1)C(=O)NCC(=O)N[C@@H](CCCCN)C(=O)N[C@@H](C)C(=O)N[C@@H](Cc1ccccc1)C(=O)N[C@H](C(=O)N[C@@H](CCCCN)C(=O)N[C@H](C(=O)N[C@@H](CC(C)C)C(=O)N[C@@H](CCCCN)C(=O)N[C@@H](CCCCN)C(N)=O)[C@@H](C)CC)C(C)C [MSI-78, reference compound] (H-GIGKFLKKAKKFGKAFVKILKK-NH2)",9,,,,8,,4,,8,64,,,,,,,,,
"CC[C@H](C)[C@H](NC(=O)CN)C(=O)NCC(=O)N[C@@H](CCCCN)C(=O)N[C@@H](Cc1ccccc1)C(=O)N[C@@H](CC(C)C)C(=O)N[C@@H](Cc1c[nH]cn1)C(=O)N[C@@H](CO)C(=O)N[C@@H](C)C(=O)N[C@@H](CCCCN)C(=O)N[C@@H](CCCCN)C(=O)N[C@@H](Cc1ccccc1)C(=O)NCC(=O)N[C@@H](CCCCN)C(=O)N[C@@H](C)C(=O)N[C@@H](Cc1ccccc1)C(=O)N[C@H](C(=O)NCC(=O)N[C@@H](CCC(=O)O)C(=O)N[C@H](C(=O)N[C@@H](CCSC)C(=O)N[C@@H](CC(N)=O)C(=O)N[C@@H](CO)C(N)=O)[C@@H](C)CC)C(C)C [Magainin 2-NH2, GIGKFLHSAKKFGKAFVGEIMNS -NH2, reference compound] (H-GIGKFLHSAKKFGKAFVGEIMNS-NH2)",2,,,,64,,256,,256,>256,,,,,,,,,
